ChEMBL document CHEMBL1126361, “A mechanism-based inactivator of E. coli -hydroxydecanoyl thiolester dehydrase designed to crosslink active site amino acids” (Bioorg Med Chem Lett, 1992)

System: Escherichia coli
Assay: Evaluation of Beta decanoyl thioester dehydrase inactivation for the compound was determined as percent enzyme activity remaining
Design: concentration or dose not given beside the values

Structure (SMILES) | Activity [%]
CCCCCCC#CCC(=O)C=[N+]=[N-] | 0
CCCCCC/C=C/CC(=O)C=[N+]=[N-] | 100
CCCCCC/C=C/CC(=O)CCl | 100
CCCCCCCCCC(=O)C=[N+]=[N-] | 97
CCCCCCC=C=CC(=O)C=[N+]=[N-] | 0
CCCCCCCCCC(=O)CCl | 99
CCCCCCC#CCC(=O)CCl | 0
CCCCCCCCCC(=O)CBr | 89
